Results as given in patent US9023789B2, “Amylin analogs and pharmaceutical compositions thereof” (Novo Nordisk A/S, priority 2012, dated 2015).
Converted amounts (≈) assume the structure as drawn. Like-named read-outs stand apart in the source and are kept apart here. Numbered stars: 1 amine (or outer) side, 2 acyl side, 3 side chain; on linkers, the order of the positions; unused ones are H or OH. Bridge positions count the residues as written; N and C are the ends. Side chains are listed from the residue outwards. Peptide text beside a SMILES is read from it. * marks the point of attachment. C20 diacid = O=C(O)CCCCCCCCCCCCCCCCCCC(=O)*; γGlu = O=C(O)[C@H](CCC(=O)[*:2])N[*:1]

Tests used:
[1] = ASSAY (IV) determination of solubility; format: physicochemical
How it was run: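 Solubility measured by UPLC of supernatant after centrifugation, following 18 h at room temperature. Peptide ([…] in water) was diluted 1:1 into 100 mM glycylglycine (pH 3.0, 4.0, 5.0) or bistrispropane (pH 6.0-8.0).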

[2] = biological target: T1, human amylin 3(a) receptor (human calcitonin receptor + RAMP-3) in BHK570 cells (Homo sapiens, UniProt O60896+P30988); assay: ASSAY (II)a functional assay, human amylin receptor (CRE luciferase); format: cell-based
T1 construct: expressed in transfected cells
How it was run: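 Functional agonism was measured by CRE-luciferase reporter luminescence in BHK cells bearing calcitonin receptor, or calcitonin receptor plus RAMP-3 as the amylin 3(a) receptor. Stimulation lasted 3 hours at 37° C.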

rat calcitonin receptor = biological target: T2, rat calcitonin receptor (Rattus norvegicus, UniProt P32214); assay: ASSAY (VIII) binding to the rat calcitonin receptor; settings: Table 7, read-out: rCTR bind IC50
T2 construct: expressed in transfected cells; host or cells: BHK tk'ts 13 (transient, FuGENE 6), membranes
T2 sequence (P32214 25-479 isoform P32214-2 limits assumed): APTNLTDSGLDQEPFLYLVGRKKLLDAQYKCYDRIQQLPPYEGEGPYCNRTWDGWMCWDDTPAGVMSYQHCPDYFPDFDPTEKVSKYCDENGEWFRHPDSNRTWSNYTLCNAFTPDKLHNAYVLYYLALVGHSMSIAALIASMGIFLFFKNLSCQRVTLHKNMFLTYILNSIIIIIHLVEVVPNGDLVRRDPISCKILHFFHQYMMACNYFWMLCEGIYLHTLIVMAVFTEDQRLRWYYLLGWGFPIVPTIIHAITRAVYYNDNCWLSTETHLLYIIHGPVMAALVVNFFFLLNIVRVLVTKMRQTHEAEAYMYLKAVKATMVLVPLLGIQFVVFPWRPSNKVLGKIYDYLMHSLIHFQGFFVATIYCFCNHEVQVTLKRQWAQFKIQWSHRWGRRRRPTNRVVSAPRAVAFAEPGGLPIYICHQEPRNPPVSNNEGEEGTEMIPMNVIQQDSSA
How it was run: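 BHK tk′ts 13 cells, transient rat calcitonin receptor transfection; DMEM + 10% FBS; harvest ~48 h post-transfection; membrane prep.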

[3] = biological target: T3, rat amylin receptor (rat calcitonin receptor + rat RAMP 3) (Rattus norvegicus, UniProt P32214+Q9JJ73); assay: ASSAY (VI) binding to the rat amylin receptor; settings: for IC50: binding to rat amylin receptor, read-out: rAmylin-R bind IC50
T3 construct: expressed in transfected cells; host or cells: BHK tk'ts 13 (transient, FuGENE 6), membranes
T3 sequence (P32214 25-479 isoform P32214-2 limits assumed): T2 sequence (P32214 25-479 isoform P32214-2 limits assumed)
T3 sequence (Q9JJ73 23-147 partner): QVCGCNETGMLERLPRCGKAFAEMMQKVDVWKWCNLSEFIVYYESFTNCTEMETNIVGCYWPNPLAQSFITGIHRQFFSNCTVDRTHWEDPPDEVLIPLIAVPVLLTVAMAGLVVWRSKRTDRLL
How it was run: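 The cell-membrane assay assessed binding at the rat amylin receptor. BHK tk′ts 13 cells were transfected transiently with rat calcitonin receptor, with FuGENE® 6 (Roche) as the transfection reagent, used per the manufacturer's recommendations. Approximately 48 hours after transfection the cells were harvested, and membranes were prepared for measuring binding.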

[4] = biological target: T4, human amylin receptor (membranes from Amylin 3(a)/CRE-luc cells) (Homo sapiens, UniProt O60896+P30988); assay: ASSAY (V) binding to the human amylin receptor (SPA, 125I-rat amylin);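 further: competition binding of cell membranes (35 ng/µL) mixed with SPA beads in 384-well plates at 40 µL total volume, read by scintillation counting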
T4 construct: expressed in transfected cells
T4 sequence (P30988 25-474): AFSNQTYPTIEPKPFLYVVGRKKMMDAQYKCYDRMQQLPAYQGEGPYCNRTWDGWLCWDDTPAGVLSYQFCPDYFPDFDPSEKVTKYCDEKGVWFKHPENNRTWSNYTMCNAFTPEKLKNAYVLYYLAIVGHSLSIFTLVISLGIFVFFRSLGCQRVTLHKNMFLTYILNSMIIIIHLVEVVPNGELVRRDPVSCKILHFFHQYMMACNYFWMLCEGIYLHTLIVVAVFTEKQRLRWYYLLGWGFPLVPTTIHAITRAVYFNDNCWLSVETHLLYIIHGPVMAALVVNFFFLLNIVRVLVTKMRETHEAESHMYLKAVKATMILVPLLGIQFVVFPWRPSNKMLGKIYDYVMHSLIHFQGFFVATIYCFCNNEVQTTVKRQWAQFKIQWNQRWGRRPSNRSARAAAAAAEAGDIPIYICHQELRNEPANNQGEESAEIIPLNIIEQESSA
T4 sequence (O60896 24-148 partner): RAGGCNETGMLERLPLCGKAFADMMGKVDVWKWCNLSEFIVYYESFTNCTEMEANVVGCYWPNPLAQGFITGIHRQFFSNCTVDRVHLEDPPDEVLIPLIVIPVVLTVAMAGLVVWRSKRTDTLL

[5] = bistrispropane buffer, pH 6.5, read-out: Solubility pH 6.5 Concentration
[6] = bistrispropane buffer, pH 7.5, read-out: Solubility pH 7.5 Concentration
[7] = bistrispropane buffer, pH 6.0, read-out: Solubility pH 6.0 Concentration
[8] = bistrispropane buffer, pH 7.0, read-out: Solubility pH 7.0 Concentration
[9] = bistrispropane buffer, pH 8.0, read-out: Solubility pH 8.0 Concentration
[10] = glycylglycine buffer, pH 3.0, read-out: Solubility pH 3.0 Concentration
[11] = glycylglycine buffer, pH 4.0, read-out: Solubility pH 4.0 Concentration
[12] = glycylglycine buffer, pH 5.0, read-out: Solubility pH 5.0 Concentration
[13] = hCTR funct. EC50 divided by hAmylin-R funct. EC50
[14] = hCTR funct. EC50 over hAmylin-R funct. EC50
[15] = human functional selectivity: hCTR funct. EC50 / hAmylin-R funct. EC50
[16] = Table 7, rat binding selectivity, rCTR IC50 / rAmylin-R IC50
[17] = Table 7a (preferred compounds), rat binding selectivity, rCTR IC50 / rAmylin-R IC50
[18] = ratio of rCTR bind IC50 to rAmylin-R bind IC50
[19] = Table 5, selectivity, hCTR bind IC50 / hAmylin-R bind IC50
[20] = Table 5a, selectivity, hCTR bind IC50 / hAmylin-R bind IC50
[21] = Table 5b, selectivity, hCTR bind IC50 / hAmylin-R bind IC50
[22] = Table 5c, selectivity, hCTR bind IC50 / hAmylin-R bind IC50
[23] = Table 7, human binding selectivity, included for comparison
[24] = Table 7a (preferred compounds), human binding selectivity, included for comparison
[25] = ratio of human calcitonin receptor binding IC50 to human amylin receptor binding IC50

solubility at 18 h [1, 5] | solubility at 18 h [1, 6] | solubility at 18 h [1, 7] | solubility at 18 h [1, 8] | solubility at 18 h [1, 9] | solubility at 18 h [1, 10] | solubility at 18 h [1, 11] | solubility at 18 h [1, 12] | Ratio hCT/hAmylin funct. [2, 13] | Ratio hCT/hAmylin funct. [2, 14] | Ratio hCT/hAmylin funct. [2, 15] | IC50 (rat calcitonin receptor) | IC50 ([3]; Table 7) | Ratio rCT/rAmylin binding [3, 16] | Ratio rCT/rAmylin binding [3, 17] | Ratio rCT/rAmylin binding [3, 18] | Ratio hCT/hAmylin binding [4, 19] | Ratio hCT/hAmylin binding [4, 20] | Ratio hCT/hAmylin binding [4, 21] | Ratio hCT/hAmylin binding [4, 23] | Structure (SMILES) | also measured
≥ 200 µM | ≥ 200 µM | ≥ 200 µM | ≥ 200 µM | ≥ 200 µM | ≥ 200 µM | ≥ 200 µM | ≥ 200 µM | 15.8 | 15.8 | 15.8 | 498 nM | 3.14 nM | 158.8 | 158.8 | 158.8 | 29.1 | 29.1 | 29.1 | 29.1 | CC[C@H](C)[C@H](NC(=O)[C@H](C)NC(=O)CNC(=O)[C@H](Cc1ccccc1)NC(=O)[C@H](CC(N)=O)NC(=O)[C@@H]1CCCN1C(=O)[C@H](CO)NC(=O)[C@H](CO)NC(=O)[C@H](Cc1c[nH]cn1)NC(=O)[C@H](CCCNC(=N)N)NC(=O)[C@H](CC(C)C)NC(=O)[C@H](Cc1ccccc1)NC(=O)[C@H](CCC(=O)O)NC(=O)[C@H](C)NC(=O)[C@H](CC(C)C)NC(=O)[C@H](CCCNC(=N)N)NC(=O)[C@H](CCC(N)=O)NC(=O)[C@@H](NC(=O)[C@H](C)NC(=O)[C@@H]1CSSC[C@H](NC(=O)[C@@H](N)CCCCNC(=O)CC[C@H](NC(=O)CC[C@H](NC(=O)CCCCCCCCCCCCCCCCCCC(=O)O)C(=O)O)C(=O)O)C(=O)N[C@@H](CC(N)=O)C(=O)N[C@@H]([C@@H](C)O)C(=O)N[C@@H](C)C(=O)N[C@@H]([C@@H](C)O)C(=O)N1)[C@@H](C)O)C(=O)N1CCC[C@H]1C(=O)N[C@@H](CO)C(=O)N[C@@H](CO)C(=O)N[C@H](C(=O)N[C@@H](CC(N)=O)C(=O)N[C@H](C(=O)NCC(=O)N[C@@H](Cc1c[nH]cn1)C(=O)N[C@@H](CCC(=O)O)C(=O)N[C@H](C(=O)N[C@@H](Cc1ccc(O)cc1)C(N)=O)[C@@H](C)O)C(C)C)[C@@H](C)O [Example 104] (H-K([γGlu-γGlu-C20 diacid])CNTATCATQRLAEFLRHSSPNFGAIPSSTNVGHETY-NH2; disulfide 2-7; N-terminus assumed) | Ratio hCT/hAmylin binding [4, 22]: 29.1; Ratio hCT/hAmylin binding [4, 24]: 29.1; Ratio hCT/hAmylin binding [4, 25]: 29.1
≥ 200 µM | 183 µM (≈ 812 µg/mL) | ≥ 200 µM | ≥ 200 µM | 109 µM (≈ 484 µg/mL) | ≥ 200 µM | ≥ 200 µM | ≥ 200 µM | 14.0 | 14.0 | 14.0 | 62 nM | 0.523 nM | 118.6 | 118.6 | 118.6 | 37.5 | 37.5 | 37.5 | 37.5 | CC[C@H](C)[C@H](NC(=O)[C@H](C)NC(=O)CNC(=O)[C@H](Cc1ccccc1)NC(=O)[C@H](CC(N)=O)NC(=O)[C@@H]1CCCN1C(=O)[C@H](CO)NC(=O)[C@H](CO)NC(=O)[C@H](Cc1c[nH]cn1)NC(=O)[C@H](CCCNC(=N)N)NC(=O)[C@H](CC(C)C)NC(=O)[C@H](Cc1ccccc1)NC(=O)[C@H](CCC(=O)O)NC(=O)[C@H](C)NC(=O)[C@H](CC(C)C)NC(=O)[C@H](CCCNC(=N)N)NC(=O)[C@H](CCC(N)=O)NC(=O)[C@@H](NC(=O)[C@H](C)NC(=O)[C@@H]1CSSC[C@H](NC(=O)[C@@H](N)CCCCNC(=O)CC[C@H](NC(=O)CCCCCCCCCCCCCCCCCCC(=O)O)C(=O)O)C(=O)N[C@@H](CC(N)=O)C(=O)N[C@@H]([C@@H](C)O)C(=O)N[C@@H](C)C(=O)N[C@@H]([C@@H](C)O)C(=O)N1)[C@@H](C)O)C(=O)N1CCC[C@H]1C(=O)N[C@@H](CO)C(=O)N[C@@H](CO)C(=O)N[C@H](C(=O)N[C@@H](CC(N)=O)C(=O)N[C@H](C(=O)NCC(=O)N[C@@H](CO)C(=O)N[C@@H](CCCNC(=N)N)C(=O)N[C@H](C(=O)N[C@@H](Cc1ccc(O)cc1)C(N)=O)[C@@H](C)O)C(C)C)[C@@H](C)O [Example 51] (H-K([γGlu-C20 diacid])CNTATCATQRLAEFLRHSSPNFGAIPSSTNVGSRTY-NH2; disulfide 2-7 (inferred); N-terminus assumed) | Ratio hCT/hAmylin binding [4, 22]: 37.5; Ratio hCT/hAmylin binding [4, 24]: 37.5; Ratio hCT/hAmylin binding [4, 25]: 37.5
≥ 200 µM | ≥ 200 µM | ≥ 200 µM | ≥ 200 µM | ≥ 200 µM | ≥ 200 µM | ≥ 200 µM | ≥ 200 µM | 1.8 | 1.8 | 1.8 | 2.71 nM | – | 5.0 | – | – | 2.5 | – | – | 2.5 | CC[C@H](C)[C@H](NC(=O)[C@H](C)NC(=O)CNC(=O)[C@H](Cc1ccccc1)NC(=O)[C@H](CC(N)=O)NC(=O)[C@@H]1CCCN1C(=O)[C@H](CO)NC(=O)[C@H](CO)NC(=O)[C@H](Cc1c[nH]cn1)NC(=O)[C@H](CCCNC(=N)N)NC(=O)[C@H](CC(C)C)NC(=O)[C@H](Cc1ccccc1)NC(=O)[C@H](CCC(=O)O)NC(=O)[C@H](C)NC(=O)[C@H](CC(C)C)NC(=O)[C@H](CCCNC(=N)N)NC(=O)[C@H](CCC(N)=O)NC(=O)[C@@H](NC(=O)[C@H](C)NC(=O)[C@@H]1CSSC[C@H](NC(=O)[C@@H](N)CCCCNC(=O)CC[C@H](NC(=O)CCCCCCCCCCCCCCCCCCC(=O)O)C(=O)O)C(=O)N[C@@H](CC(N)=O)C(=O)N[C@@H]([C@@H](C)O)C(=O)N[C@@H](C)C(=O)N[C@@H]([C@@H](C)O)C(=O)N1)[C@@H](C)O)C(=O)N1CCC[C@H]1C(=O)N[C@@H](CO)C(=O)N[C@@H](CO)C(=O)N[C@H](C(=O)N[C@@H](CC(N)=O)C(=O)N[C@H](C(=O)NCC(=O)N[C@@H](CO)C(=O)N[C@@H](CC(N)=O)C(=O)N[C@H](C(=O)N1CCC[C@H]1C(N)=O)[C@@H](C)O)C(C)C)[C@@H](C)O [Example 12] (H-K([γGlu-C20 diacid])CNTATCATQRLAEFLRHSSPNFGAIPSSTNVGSNTP-NH2; disulfide 2-7 (inferred); N-terminus assumed) | Ratio hCT/hAmylin funct. ([2]; hCTR funct. EC50 / hAmylin-R funct. EC50): 1.8
